The results in this text go back to ChEMBL document CHEMBL1201862, “PubChem BioAssay data set” (2004).

Among the test systems are Malme-3M; HOP-92; IGROV-1; HOP-62; T47D; MOLT-4; RPMI-8226; K562; NCI-H23; LOX IMVI; SF-295; MDA-MB-435; ACHN; SNB-75; 786-0; COLO 205; DU-145; NCI-H460; OVCAR-5; OVCAR-4.
What all share (assay): NCI tumour cell line growth inhibition, 48 h

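Tested at 5 concentrations; 48 h exposure; 96-well plates; endpoints linearly interpolated, else capped at highest concentration. GI50 is the concentration that inhibits growth by half.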 Activity calls are given as the source filed them. Rule as the data show it: active = GI50 up to about 1.1 µM and inactive = higher. A value given as a limit tells only on which side of the number the result lay.

On to `COc1cc(OC)c(/C=C\c2cc(/C=C/c3c(OC)cc(OC)cc3OC)c3ccccc3[n+]2C)c(OC)c1`, for which the GI50 in the experiment on Malme-3M was 1.96 µM (inactive); in the experiment on HOP-92 it was 2.95 µM (inactive); in the experiment with IGROV-1, 3.24 µM (inactive); in the experiment with HOP-62, 1.07 µM (active); in the experiment with T47D, 2.37 µM (inactive); in the experiment on MOLT-4, 1.98 µM (inactive). The GI50 in the experiment with RPMI-8226 was 2 µM (inactive); in the experiment on K562, 1.64 µM (inactive); with NCI-H23, 2.76 µM (inactive); in the experiment on LOX IMVI, 4.07 µM (inactive); in the experiment with SF-295 it was 2.31 µM (inactive); with MDA-MB-435 it was 2.48 µM (inactive). Also, the GI50 was 4.59 µM (inactive) in the experiment with ACHN; 2.77 µM (inactive) in the experiment with SNB-75; 2.2 µM (inactive) with 786-0; 1.67 µM (inactive) in the experiment on COLO 205; 5.94 µM (inactive) with DU-145; 2.21 µM (inactive) in the experiment with NCI-H460. Moreover, the GI50 in the experiment with OVCAR-5 was 13.2 µM (inactive); in the experiment on OVCAR-4, 8.39 µM (inactive).

For `Cc1ccc(Nc2nc3ccccc3c(=O)n2N)cc1`, the GI50 in the experiment with Malme-3M was > 100 µM (inactive); with HOP-92, > 100 µM (inactive); in the experiment on IGROV-1, 88.3 µM (inactive); in the experiment with HOP-62, > 100 µM (inactive); in the experiment with T47D, > 100 µM (inactive); in the experiment on MOLT-4, > 100 µM (inactive). In addition, the GI50 in the experiment on RPMI-8226, with K562, with NCI-H23, in the experiment on LOX IMVI, in the experiment on SF-295 and in the experiment with MDA-MB-435 was > 100 µM (inactive) throughout. Besides, the GI50 in the experiment with ACHN is > 100 µM (inactive); in the experiment on SNB-75, 75 µM (inactive); in the experiment on 786-0, > 100 µM (inactive); with COLO 205, > 100 µM (inactive); in the experiment with DU-145, > 100 µM (inactive); in the experiment on NCI-H460, > 100 µM (inactive). Besides, the GI50 in the experiment on OVCAR-5 and in the experiment with OVCAR-4 was > 100 µM (inactive) each time.

For `O=c1oc2ccccc2c(Nc2ccc3c(c2)Oc2ccccc2O3)c1[N+](=O)[O-]`, the GI50 in the experiment on Malme-3M is 23 µM (inactive); with HOP-92, 16.7 µM (inactive); in the experiment on IGROV-1, 19 µM (inactive); in the experiment on HOP-62, 34.9 µM (inactive); in the experiment with T47D it was 28.7 µM (inactive); in the experiment with MOLT-4, 43 µM (inactive). For the same compound, the GI50 with RPMI-8226 is 59.6 µM (inactive); with K562, 51.8 µM (inactive); in the experiment on NCI-H23, 20.3 µM (inactive); with LOX IMVI, 36.9 µM (inactive); in the experiment on SF-295 it was 18 µM (inactive); in the experiment with MDA-MB-435, 54.3 µM (inactive). Also, the GI50 was 16.3 µM (inactive) in the experiment on ACHN; 14.7 µM (inactive) in the experiment with SNB-75; 18.9 µM (inactive) in the experiment with 786-0; > 100 µM (inactive) in the experiment with COLO 205; 29.6 µM (inactive) in the experiment on DU-145; 42.2 µM (inactive) in the experiment with NCI-H460. Also, the GI50 with OVCAR-5 was 35.6 µM (inactive); with OVCAR-4 it was 23.9 µM (inactive).

For the compound `C/C(=C/CC[C@](C)(OC1OC(CO)C(O)C(O)C1O)[C@H]1CC[C@]2(C)[C@@H]1CC[C@@H]1[C@@]3(C)CC[C@H](O)C(C)(C)[C@@H]3C[C@H](O)[C@]12CO)CO` (stereo not given in full), the GI50 in the experiment on Malme-3M, in the experiment with HOP-92, with IGROV-1, with HOP-62, in the experiment with T47D and with MOLT-4 was > 100 µM (inactive) in each case. Besides, the GI50 in the experiment with RPMI-8226, with K562, with NCI-H23, in the experiment on LOX IMVI, in the experiment on SF-295 and in the experiment on MDA-MB-435 was > 100 µM (inactive) throughout. Besides, the GI50 in the experiment with ACHN, in the experiment with SNB-75, in the experiment on 786-0, with COLO 205, in the experiment on DU-145 and in the experiment on NCI-H460 was > 100 µM (inactive) throughout. Besides, the GI50 in the experiment on OVCAR-5 and with OVCAR-4 was > 100 µM (inactive) throughout.

On to `CCCCNCCCNCCCNC(=O)c1csc(-c2csc(CCNC(=O)C(NC(=O)C(C)C(O)C(C)NC(=O)C(NC(=O)c3nc(C(CC(N)=O)NCC(N)C(N)=O)nc(N)c3C)C(OC3OC(CO)C(O)C(O)C3OC3OC(CO)C(O)C(OC(N)=O)C3O)c3c[nH]cn3)C(C)O)n2)n1` (stereo not given), for which the GI50 with Malme-3M is 0.294 µM (active); in the experiment on HOP-92, 0.0798 µM (active); with IGROV-1, 4.04 µM (inactive); in the experiment with HOP-62, 0.174 µM (active); in the experiment on T47D, 12.9 µM (inactive); in the experiment on MOLT-4, 2.07 µM (inactive). In addition, the GI50 in the experiment on RPMI-8226 was > 50 µM (inactive); in the experiment on K562 it was 10.1 µM (inactive); in the experiment with NCI-H23, 0.083 µM (active); in the experiment on LOX IMVI it was 0.105 µM (active); in the experiment on SF-295, 0.0681 µM (active); in the experiment with MDA-MB-435, 18.7 µM (inactive). Besides, the GI50 in the experiment with ACHN was < 0.0187 µM (active); with SNB-75, 0.0589 µM (active); with 786-0, 0.167 µM (active); in the experiment with COLO 205 it was 9.44 µM (inactive); in the experiment on DU-145, 11.1 µM (inactive); in the experiment on NCI-H460 it was 0.0264 µM (active). Besides, the GI50 in the experiment on OVCAR-5 is 2.3 µM (inactive); in the experiment on OVCAR-4, 5.75 µM (inactive).

For the compound `O=C1OC(c2ccc([N+](=O)[O-])cc2)=N/C1=C\c1ccc(O)cc1`, the GI50 in the experiment on Malme-3M, in the experiment on HOP-92, with IGROV-1, with HOP-62, in the experiment with T47D and in the experiment on MOLT-4 was > 100 µM (inactive) in each case. Further, the GI50 with RPMI-8226, in the experiment on K562, in the experiment with NCI-H23, in the experiment on LOX IMVI, in the experiment with SF-295 and in the experiment on MDA-MB-435 was > 100 µM (inactive) in each case. The GI50 in the experiment on ACHN, with SNB-75, in the experiment with 786-0, with COLO 205, in the experiment with DU-145 and in the experiment on NCI-H460 was > 100 µM (inactive) throughout. Moreover, the GI50 with OVCAR-5 and with OVCAR-4 was > 100 µM (inactive) in each case.

Take `CCCCCCCCCCCCCCCCNC(=O)/C(=C\c1ccc(Cl)c(Cl)c1)NC(=O)c1ccccc1`: the GI50 with Malme-3M was > 100 µM (inactive); with HOP-92, 14.2 µM (inactive); in the experiment on IGROV-1 it was 16.8 µM (inactive); in the experiment on HOP-62 it was 21.4 µM (inactive); with T47D it was > 100 µM (inactive); with MOLT-4, 15.5 µM (inactive). In addition, the GI50 in the experiment with RPMI-8226 was 24.4 µM (inactive); in the experiment with K562 it was 22 µM (inactive); in the experiment with NCI-H23, 22.8 µM (inactive); in the experiment with LOX IMVI, 21.9 µM (inactive); in the experiment on SF-295, 55.2 µM (inactive); in the experiment on MDA-MB-435, > 100 µM (inactive). In addition, the GI50 in the experiment on ACHN was 47.4 µM (inactive); in the experiment on SNB-75 it was 16.7 µM (inactive); with 786-0, 19.4 µM (inactive); in the experiment on COLO 205, 35.1 µM (inactive); in the experiment with DU-145, 27.4 µM (inactive); in the experiment with NCI-H460 it was 36.6 µM (inactive). Moreover, the GI50 in the experiment on OVCAR-5 is 47.2 µM (inactive); in the experiment with OVCAR-4 it was 24.8 µM (inactive).

Consider `CC(C)c1ccc(/C=C2\CSCC3=C2N=C2SCC(=O)N2C3c2ccc(C(C)C)cc2)cc1` (stereo not given), for which the GI50 with Malme-3M was 96.4 µM (inactive); in the experiment on HOP-92, > 100 µM (inactive); in the experiment with IGROV-1, > 100 µM (inactive); in the experiment with HOP-62 it was > 100 µM (inactive); in the experiment on T47D, 57.9 µM (inactive); in the experiment with MOLT-4, 75.5 µM (inactive). For the same compound, the GI50 in the experiment with RPMI-8226 is 80.7 µM (inactive); in the experiment on K562 it was > 100 µM (inactive); in the experiment on NCI-H23, > 100 µM (inactive); in the experiment on LOX IMVI, > 100 µM (inactive); in the experiment on SF-295, > 100 µM (inactive); in the experiment on MDA-MB-435, > 100 µM (inactive). The GI50 in the experiment on ACHN, in the experiment on SNB-75, with 786-0, with COLO 205, in the experiment on DU-145 and in the experiment with NCI-H460 was > 100 µM (inactive) in each case. The GI50 in the experiment on OVCAR-5 and in the experiment on OVCAR-4 was > 100 µM (inactive) in each case.

In the case of `C[C@]12CC[C@H]3[C@@H](CC=C4C[C@@H](O)CC[C@@]43C)[C@@H]1C/C(=C\c1ccncc1)[C@@H]2O`, the GI50 with Malme-3M is 22.6 µM (inactive); in the experiment on HOP-92 it was 2 µM (inactive); in the experiment on IGROV-1 it was 21.8 µM (inactive); with HOP-62, 29.9 µM (inactive); with T47D, 12.1 µM (inactive); in the experiment with MOLT-4 it was 9.77 µM (inactive). For the same compound, the GI50 is 9.91 µM (inactive) in the experiment on RPMI-8226; 15.8 µM (inactive) in the experiment on K562; 13.7 µM (inactive) with NCI-H23; 22 µM (inactive) with LOX IMVI; 16.6 µM (inactive) in the experiment on SF-295; 19.7 µM (inactive) in the experiment with MDA-MB-435. The GI50 in the experiment with ACHN was 16.9 µM (inactive); in the experiment with SNB-75, 27.1 µM (inactive); in the experiment on 786-0, 21.1 µM (inactive); with COLO 205, 10.6 µM (inactive); in the experiment on DU-145, 23.1 µM (inactive); in the experiment on NCI-H460, 15.1 µM (inactive). The GI50 in the experiment with OVCAR-5 was 32.7 µM (inactive); in the experiment with OVCAR-4 it was 12.2 µM (inactive).
